In EP0235773A1, “Improved pesticide formulations” (Shell Agrar GmbH & Co. KG, priority 1986, dated 1987):
Counter-ions that a name gives are not always drawn.

What was measured:
[1] = Approximate solubility of solutes in butyrolactone (BLO); format: physicochemical; settings: solvent BLO; approximately 25-30°C
Description: In formulating the solutions of chlorflurenol and solvent, it was necessary to agitate the solution in order to dissolve the chlorflurenol in the BLO, M-Pyrol, or BLO/M-PYROL.
From tests conducted, the following approximate solubilities at temperatures of approximately 25-30°C. were determined.
Technical dicamba acid - 86.9% acid equivalent Technical sodium salt of dicamba acid - 76% acid equivalent Technical chlorflurenol methyl ester - 95-98% total methal esters

[2] = cited from earlier work

| SMILES | Solubility for acid Equivalent Concentration [1] | water solubility [2] |
| --- | --- | --- |
| COC(=O)C1(O)c2ccccc2-c2ccc(Cl)cc21 (stereo not drawn) [Technical chlorflurenol methy ester, chlorflurenol methyl ester] | approximately 25% | 0.0018 grams/100 grams water |
| COc1c(Cl)ccc(Cl)c1C(=O)O [Technical sodium salt of dicamba] | Less than 1% |  |
